# Measured values taken from patent publication US20110110965A1, “COMPOSITIONS THAT INDUCE T CELL HELP” (Selecta Biosciences, Inc., priority 2009, published 2011).
# “Also recorded” adds a separate entry of the source. Like-named read-outs stand apart in the source and are kept apart here. Where no end group is shown, it is not given here. [ ]: non-standard residue; d: D form.
# What was measured:
# [1] = test system: CD4+/CD45RAlow/CD62Lhigh central memory T-cells; assay type: cell-based, human; details: for memory T-cell recall response, influenza epitopes: 5 PBMC donors, FIG. 12; for memory T-cell recall response, influenza epitopes / potency of recall response (activated central memory T-cells, CD4+/CD45RAmedium/CD62Lhigh/IFN-γ+) / memory T-cell recall response of individual peptides and heterodimeric peptides lacking a cathepsin cleavage site compared with this peptide: 4 μM peptide; for potency of recall response (activated central memory T-cells, CD4+/CD45RAmedium/CD62Lhigh/IFN-γ+): human PBMC, 20 donors, FIG. 2; for memory T-cell recall response of individual peptides and heterodimeric peptides lacking a cathepsin cleavage site compared with this peptide: 4 donors, the comparators gave the weaker response, the labelled kvsvr peptides the stronger
# [2] = test system: CD4+/CD45RAlow/CD62Lhigh central memory T-cells; assay: Dendritic cell/CD4 T-cell co-culture, multi-color intracellular cytokine analysis; assay type: cell-based, human; details: for co-expression of TNF-α and IFN-γ / co-expression of TNF-α and IL-4: multiple color flow cytometry, FIG. 6; for expression of IL-4 in peptide activated memory T-cells / expression of TNF-α and IFN-γ in peptide activated memory T-cells: DC/CD4 T-cell co-culture with peptide, FIGS. 4, 5
# Protocol: Early central memory-cells express multiple cytokines (IL-2, TNF-α, IFN-γ) when re-activated with specific peptides, whereas committed effector memory T-cells are thought to selectively express IL-4 for TH2 committed effector memory, and IFN-γ for TH1 committed effector memory. The status of peptide activated memory T-cells was tested using multi-color intracellular cytokine analysis of dendritic cell/CD4 cell co-cultures.
# Human peripheral blood monocytes were isolated using negative-selection magnetic beads (Dynal) and cultured in the presence of GM-CSF and IL-4 for 1 week in order to induce differentiation into dendritic cells. Allogeneic CD4 T cells were isolated using magnetic bead separation (Dynal) and co-cultured in the presence of DCs in the presence or absence of peptide. The protocol for stimulation and analysis from that point is identical to that for PBMC described above in Example 2.
substance,measurement,setting,value
NAELLVALENQHTIkvsvrLIFLARSALILR (NAELLVALENQHTIKVSVRLIFLARSALILR) [3120tkAAT],"memory T-cell recall response, influenza epitopes",[1],positive
CSQRSKFLLMDALKLkvsvrLIFLARSALILR [AAWkAAT],"memory T-cell recall response, influenza epitopes",[1],positive
ILMQYIKANSKFIGIQSIALSSLMVAQ [TT830DTt],co-expression of TNF-α and IFN-γ,[2],peptide induced co-expression
same,co-expression of TNF-α and IL-4,[2],not co-expression
ILMQYIKANSKFIGIPMGLPQSIALSSLMVAQ [TT830pDTt],"potency of recall response (activated central memory T-cells, CD4+/CD45RAmedium/CD62Lhigh/IFN-γ+)",[1]; listed as TT830 pmglpDTt,highest response; also recorded: more active than its individual components (TT830 and DT) alone
same,number (out of 20) donors positive for memory T-cells responding to peptide,"[1]; positive if greater than 0.08% responding central memory T-cells in the CD4+CD45RAlow population, FIG. 3",20/20
same,expression of IL-4 in peptide activated memory T-cells,[2],not IL-4
same,expression of TNF-α and IFN-γ in peptide activated memory T-cells,[2],increased expression
same,co-expression of TNF-α and IFN-γ,[2],peptide induced co-expression
same,co-expression of TNF-α and IL-4,[2],not co-expression
TLLYVLFEVkvsvr NNFTVSFWLRVPKVSASHLET (TLLYVLFEV[dK][dV][dS][dV][dR]NNFTVSFWLRVPKVSASHLET) [AdVkTT950],memory T-cell recall response of individual peptides and heterodimeric peptides lacking a cathepsin cleavage site compared with this peptide,[1],weaker response as compared to the donor response to heterotrimeric peptides
ILSIYSTVASSLALAIkvsvrLIFLARSALILR [ABW2kAAT],"memory T-cell recall response, influenza epitopes",[1],positive
TLLYVLFEVPMGLPILMQYIKANSKFIGI [AdVpTT830],"potency of recall response (activated central memory T-cells, CD4+/CD45RAmedium/CD62Lhigh/IFN-γ+)",[1],eliminated activity of the AdV epitope
ILMQYIKANSKFIGI QSIALSSLMVAQTLLYVLFEV (ILMQYIKANSKFIGIQSIALSSLMVAQTLLYVLFEV) [TT830DTAdV],memory T-cell recall response,[1],recall response in all 4 donors
LIFLARSALILRkvsvrILSIYSTVASSLALAI [AATkABW2],"memory T-cell recall response, influenza epitopes",[1],positive
ILMQYIKANSKFIGIQSIALSSLMVAQAIPLVGEL [TT830DT],expression of IL-4 in peptide activated memory T-cells,[2],not IL-4
same,expression of TNF-α and IFN-γ in peptide activated memory T-cells,[2],increased expression
TLLYVLFEVkvsvrQSIALSSLMVAQ (TLLYVLFEV[dK][dV][dS][dV][dR]QSIALSSLMVAQ) [AdVkDTt],memory T-cell recall response of individual peptides and heterodimeric peptides lacking a cathepsin cleavage site compared with this peptide,[1],weaker response as compared to the donor response to heterotrimeric peptides
